For series [1], the target named is Serine/threonine-protein kinase ATR (Homo sapiens, UniProt Q13535). Description: Inhibition of human recombinant FLAG-tagged full length ATR expressed in mammalian cell line co-expressing human recombinant cMyc-tagged full length ATRIP.
Series [2] in a line: Half life in mouse at 10 mg/kg, po. In kind it is ADME, organism-based. The settings on record: in vivo.
For series [3], the system named is Tyrosine-protein kinase ABL1 (Homo sapiens), P00519 [T315I]. Description: Inhibition of recombinant human Abl T315I mutant (27 to end residues) at 1 uM using EAIYAAPFAKKK as substrate after 40 mins in presence of [gamma-33P]ATP by scintillation counting method.
Series [4] deals with Activin receptor type-1B (Homo sapiens) (UniProt P36896). Kind of series: Inhibition of recombinant human ALK4 (150 to end residues) at 1 uM using casein as substrate after 40 mins in presence of [gamma-33P]ATP by scintillation counting method.
Activin receptor type-1B (Homo sapiens), sequence (P36896 whole entry): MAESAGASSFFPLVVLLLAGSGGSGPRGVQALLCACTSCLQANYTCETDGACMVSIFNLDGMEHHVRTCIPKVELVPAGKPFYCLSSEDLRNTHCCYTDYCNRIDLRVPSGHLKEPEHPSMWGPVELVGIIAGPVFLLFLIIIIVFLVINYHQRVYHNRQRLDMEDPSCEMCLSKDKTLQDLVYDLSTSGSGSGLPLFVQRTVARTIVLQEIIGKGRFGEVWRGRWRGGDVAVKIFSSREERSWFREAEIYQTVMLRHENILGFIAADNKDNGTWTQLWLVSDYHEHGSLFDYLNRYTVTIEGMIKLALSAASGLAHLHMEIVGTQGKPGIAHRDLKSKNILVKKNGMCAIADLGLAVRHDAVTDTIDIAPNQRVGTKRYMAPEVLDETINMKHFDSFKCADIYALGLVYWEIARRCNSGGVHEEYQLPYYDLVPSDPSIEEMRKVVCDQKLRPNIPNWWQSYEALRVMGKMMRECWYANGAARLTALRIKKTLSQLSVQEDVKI
The target of series [5] is Calcium/calmodulin-dependent protein kinase type 1D (Homo sapiens) (UniProt Q8IU85). Kind of series: Inhibition of recombinant full-length human CAMK1delta at 1 uM using […] after 40 mins in presence of [gamma-33P]ATP by scintillation counting method.
Series [6] has as its target CDK7/Cyclin H/MNAT1 (Homo sapiens) (UniProt P51946+P50613+P51948). Description: Inhibition of recombinant full-length human CDK7/CyclinH/MAT1 at 1 uM using peptide as substrate after 40 mins in presence of [gamma-33P]ATP by scintillation counting method. In kind it is protein-complex assay.
The target of series [7] is Casein kinase I isoform gamma-2 (Homo sapiens) (UniProt P78368). Description: Inhibition of recombinant human CK1gamma2 (18 to end residues) at 1 uM using KRRRALS(p)VASLPGL s substrate after 40 mins in presence of [gamma-33P]ATP by scintillation counting method.
The target in series [8] is Casein kinase I isoform gamma-3 (Homo sapiens) (UniProt Q9Y6M4). Kind of series: Inhibition of recombinant human CK1gamma3 (1 to 330 residues) at 1 uM using KRRRALS(p)VASLPGL as substrate after 40 mins in presence of [gamma-33P]ATP by scintillation counting method.
Casein kinase I isoform gamma-3 (Homo sapiens), sequence (Q9Y6M4 whole entry, looked up, the tested form may be a part, canonical isoform): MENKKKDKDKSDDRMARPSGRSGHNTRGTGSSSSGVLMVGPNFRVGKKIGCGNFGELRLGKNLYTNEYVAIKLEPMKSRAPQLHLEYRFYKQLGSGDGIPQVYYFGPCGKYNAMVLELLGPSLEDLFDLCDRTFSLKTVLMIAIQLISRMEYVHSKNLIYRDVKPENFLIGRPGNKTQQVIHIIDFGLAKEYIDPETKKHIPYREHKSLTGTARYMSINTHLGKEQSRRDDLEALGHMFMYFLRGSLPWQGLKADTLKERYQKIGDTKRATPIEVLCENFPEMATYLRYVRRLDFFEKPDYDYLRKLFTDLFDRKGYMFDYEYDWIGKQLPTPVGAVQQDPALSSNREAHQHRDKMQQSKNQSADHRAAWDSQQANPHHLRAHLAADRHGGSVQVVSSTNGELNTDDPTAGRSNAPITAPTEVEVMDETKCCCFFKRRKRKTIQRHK
In series [9] the test system is Mast/stem cell growth factor receptor Kit (Homo sapiens), P10721 [V560G]. Description: Inhibition of recombinant human cKit V560G mutant (544 to end residues) at 1 uM using GGMEDIYFEFMGGKKK as substrate after 40 mins in presence of [gamma-33P]ATP by scintillation counting method.
Mast/stem cell growth factor receptor Kit (Homo sapiens), P10721 [V560G], sequence (P10721 whole entry V560G): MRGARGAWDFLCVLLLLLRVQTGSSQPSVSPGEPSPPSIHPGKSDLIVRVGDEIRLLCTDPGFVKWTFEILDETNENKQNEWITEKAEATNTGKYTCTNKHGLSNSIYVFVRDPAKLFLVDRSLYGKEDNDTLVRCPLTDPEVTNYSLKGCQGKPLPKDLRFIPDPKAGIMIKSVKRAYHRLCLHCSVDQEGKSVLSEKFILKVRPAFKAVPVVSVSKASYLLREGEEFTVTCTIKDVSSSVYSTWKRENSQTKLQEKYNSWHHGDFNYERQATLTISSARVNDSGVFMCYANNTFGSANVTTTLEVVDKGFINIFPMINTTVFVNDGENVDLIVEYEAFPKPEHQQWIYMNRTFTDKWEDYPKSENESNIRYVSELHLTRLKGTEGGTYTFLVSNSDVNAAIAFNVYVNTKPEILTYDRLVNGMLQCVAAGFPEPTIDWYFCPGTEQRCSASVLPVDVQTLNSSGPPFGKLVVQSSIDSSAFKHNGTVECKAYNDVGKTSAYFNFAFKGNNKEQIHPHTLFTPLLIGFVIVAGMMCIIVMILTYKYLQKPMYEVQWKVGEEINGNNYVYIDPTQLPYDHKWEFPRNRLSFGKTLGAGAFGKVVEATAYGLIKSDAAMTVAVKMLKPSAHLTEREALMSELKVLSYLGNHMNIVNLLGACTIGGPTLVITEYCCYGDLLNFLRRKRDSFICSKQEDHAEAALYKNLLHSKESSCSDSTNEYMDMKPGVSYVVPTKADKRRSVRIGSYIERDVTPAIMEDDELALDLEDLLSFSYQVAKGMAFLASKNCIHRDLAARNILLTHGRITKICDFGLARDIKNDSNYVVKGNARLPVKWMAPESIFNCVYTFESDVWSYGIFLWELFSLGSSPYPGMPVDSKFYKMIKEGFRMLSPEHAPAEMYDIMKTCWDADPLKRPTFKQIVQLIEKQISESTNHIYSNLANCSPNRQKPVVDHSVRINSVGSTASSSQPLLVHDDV
The target of series [10] is Dual specificity tyrosine-phosphorylation-regulated kinase 2 (Homo sapiens) (UniProt Q92630). Description: Inhibition of recombinant full-length human DYRK2 at 1 uM using casein as substrate after 40 mins in presence of [gamma-33P]ATP by scintillation counting method.
Dual specificity tyrosine-phosphorylation-regulated kinase 2 (Homo sapiens), sequence (Q92630 whole entry, the tested form may be a part): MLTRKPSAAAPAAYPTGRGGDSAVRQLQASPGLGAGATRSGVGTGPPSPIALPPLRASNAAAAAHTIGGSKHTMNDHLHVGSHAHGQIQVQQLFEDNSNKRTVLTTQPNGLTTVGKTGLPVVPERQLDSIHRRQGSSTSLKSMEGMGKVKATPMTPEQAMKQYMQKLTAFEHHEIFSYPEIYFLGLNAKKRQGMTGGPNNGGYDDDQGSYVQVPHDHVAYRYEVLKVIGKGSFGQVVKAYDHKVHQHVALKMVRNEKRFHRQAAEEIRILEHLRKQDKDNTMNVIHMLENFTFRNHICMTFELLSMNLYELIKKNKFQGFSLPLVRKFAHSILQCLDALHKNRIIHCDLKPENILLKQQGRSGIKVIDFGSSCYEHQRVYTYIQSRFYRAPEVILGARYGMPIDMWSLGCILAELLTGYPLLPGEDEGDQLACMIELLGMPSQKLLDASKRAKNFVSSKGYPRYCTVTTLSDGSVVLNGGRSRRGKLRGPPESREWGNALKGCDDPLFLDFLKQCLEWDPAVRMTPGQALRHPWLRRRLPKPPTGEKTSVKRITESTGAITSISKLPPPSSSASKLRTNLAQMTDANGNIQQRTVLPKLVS
Series [11] concerns the target Ephrin type-A receptor 2 (Homo sapiens) (UniProt P29317). Description: Inhibition of recombinant human EPHA2 (596 to 900 residues) at 1 uM using poly(Glu,Tyr) 4:1 as substrate after 40 mins in presence of [gamma-33P]ATP by scintillation counting method.
Series [12] addresses Fibroblast growth factor receptor 2 (Homo sapiens) (UniProt P21802). Kind of series: Inhibition of recombinant human FGFR2 (456 to 770 residues) at 1 uM using poly(Glu,Tyr) 4:1 as substrate after 40 mins in presence of [gamma-33P]ATP by scintillation counting method.
Series [13] concerns the target Beta-adrenergic receptor kinase 1 (Homo sapiens) (UniProt P25098). Description: Inhibition of recombinant full-length human GRK2 at 1 uM using casein as substrate after 40 mins in presence of [gamma-33P]ATP by scintillation counting method.
The target of series [14] is Tyrosine-protein kinase ITK/TSK (Homo sapiens) (UniProt Q08881). Kind of series: Inhibition of recombinant human ITK (352 to 617 residues) at 1 uM using myelin basic protein as substrate after 40 mins in presence of [gamma-33P]ATP by scintillation counting method.
Tyrosine-protein kinase ITK/TSK (Homo sapiens), sequence (Q08881 whole entry, the tested form may be a part): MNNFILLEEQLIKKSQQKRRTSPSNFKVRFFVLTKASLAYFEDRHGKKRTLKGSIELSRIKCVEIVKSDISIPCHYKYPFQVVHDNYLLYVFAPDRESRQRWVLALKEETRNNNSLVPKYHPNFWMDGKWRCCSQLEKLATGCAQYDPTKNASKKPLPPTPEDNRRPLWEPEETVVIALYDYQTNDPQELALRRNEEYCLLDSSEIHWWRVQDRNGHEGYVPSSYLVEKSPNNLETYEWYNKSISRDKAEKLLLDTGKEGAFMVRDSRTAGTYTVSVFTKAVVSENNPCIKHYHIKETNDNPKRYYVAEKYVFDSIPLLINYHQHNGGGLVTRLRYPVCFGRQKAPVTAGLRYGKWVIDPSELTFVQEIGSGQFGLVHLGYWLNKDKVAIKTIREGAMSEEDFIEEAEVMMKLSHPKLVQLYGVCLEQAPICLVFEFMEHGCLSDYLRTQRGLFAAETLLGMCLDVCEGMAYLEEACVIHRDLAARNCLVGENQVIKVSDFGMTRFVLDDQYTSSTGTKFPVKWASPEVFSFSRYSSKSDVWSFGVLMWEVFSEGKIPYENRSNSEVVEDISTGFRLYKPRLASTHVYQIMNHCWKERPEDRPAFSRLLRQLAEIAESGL
Series [15] concerns the target SRSF protein kinase 3 (Homo sapiens) (UniProt Q9UPE1). Kind of series: Inhibition of recombinant full-length human MSSK1 at 1 uM using ERMRPRKRQGSVRRRV as substrate after 40 mins in presence of [gamma-33P]ATP by scintillation counting method.
The target of series [16] is Serine/threonine-protein kinase Nek6 (Homo sapiens) (UniProt Q9HC98). Kind of series: Inhibition of recombinant human NEK6 (2 to end residues) at 1 uM using FLAKSFGSPNRAYKK as substrate after 40 mins in presence of [gamma-33P]ATP by scintillation counting method.
Series [17] has as its target [Pyruvate dehydrogenase (acetyl-transferring)] kinase isozyme 4, mitochondrial (Homo sapiens) (UniProt Q16654). Kind of series: Inhibition of recombinant full-length human PDHK4 at 1 uM using KKKYHGHSMSDPGVSYRT as substrate after 40 mins in presence of [gamma-33P]ATP by scintillation counting method.
Series [18] concerns PI3-kinase p110-alpha/p85-alpha (Homo sapiens), P27986+P42336 [E542K]. Kind of series: Inhibition of recombinant full-length human p110a E542K mutant/p85a at 1 uM using phosphatidylinositol 4,5-bisphosphate as substrate after 40 mins in presence of [gamma-33P]ATP by scintillation counting method. In kind it is protein-complex assay.
The target of series [19] is Phosphatidylinositol 3-kinase C2 domain-containing subunit gamma (Homo sapiens) (UniProt O75747). Kind of series: Inhibition of recombinant human PI3KC2gamma (468 to 1203 residues) at 1 uM phosphatidylinositol/phosphatidylserine as substrate after 40 mins in presence of [gamma-33P]ATP by scintillation counting method.
Series [20] concerns the target Phosphatidylinositol 4-phosphate 5-kinase type-1 alpha (Homo sapiens) (UniProt Q99755). Description: Inhibition of recombinant full-length human PIP5K1alpha at 1 uM using phosphatidylinositol 4-phosphate/phosphatidylserine as substrate after 40 mins in presence of [gamma-33P]ATP by scintillation counting method.
The target of series [21] is Serine/threonine-protein kinase PLK3 (Homo sapiens) (UniProt Q9H4B4). Description: Inhibition of recombinant human Plk3 (19 to 301 residues) at 1 uM using casein as substrate after 40 mins in presence of [gamma-33P]ATP by scintillation counting method.
Serine/threonine-protein kinase PLK3 (Homo sapiens), sequence (Q9H4B4 whole entry, looked up, the tested form may be a part): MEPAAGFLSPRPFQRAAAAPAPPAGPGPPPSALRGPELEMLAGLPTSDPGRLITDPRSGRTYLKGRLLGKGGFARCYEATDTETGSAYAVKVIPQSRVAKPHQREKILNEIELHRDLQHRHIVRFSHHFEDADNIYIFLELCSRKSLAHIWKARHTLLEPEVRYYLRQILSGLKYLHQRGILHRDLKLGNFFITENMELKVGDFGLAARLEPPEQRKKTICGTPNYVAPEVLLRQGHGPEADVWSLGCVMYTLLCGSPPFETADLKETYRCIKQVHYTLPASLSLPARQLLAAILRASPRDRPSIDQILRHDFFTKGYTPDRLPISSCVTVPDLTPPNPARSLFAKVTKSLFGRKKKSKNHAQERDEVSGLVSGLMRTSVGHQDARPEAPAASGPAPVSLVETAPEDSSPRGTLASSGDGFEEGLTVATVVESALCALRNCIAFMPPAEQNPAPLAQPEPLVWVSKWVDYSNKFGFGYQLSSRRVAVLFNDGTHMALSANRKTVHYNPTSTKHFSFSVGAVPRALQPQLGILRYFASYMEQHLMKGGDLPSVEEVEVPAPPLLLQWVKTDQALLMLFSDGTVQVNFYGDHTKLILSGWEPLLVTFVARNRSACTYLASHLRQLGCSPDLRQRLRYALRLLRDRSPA
In series [22] the target is Serine/threonine-protein kinase PLK2 (Homo sapiens) (UniProt Q9NYY3). Kind of series: Inhibition of recombinant human Snk (65 to 409 residues) at 1 uM using casein as substrate after 40 mins in presence of [gamma-33P]ATP by scintillation counting method.
Serine/threonine-protein kinase PLK2 (Homo sapiens), sequence (Q9NYY3 whole entry, looked up, the tested form may be a part): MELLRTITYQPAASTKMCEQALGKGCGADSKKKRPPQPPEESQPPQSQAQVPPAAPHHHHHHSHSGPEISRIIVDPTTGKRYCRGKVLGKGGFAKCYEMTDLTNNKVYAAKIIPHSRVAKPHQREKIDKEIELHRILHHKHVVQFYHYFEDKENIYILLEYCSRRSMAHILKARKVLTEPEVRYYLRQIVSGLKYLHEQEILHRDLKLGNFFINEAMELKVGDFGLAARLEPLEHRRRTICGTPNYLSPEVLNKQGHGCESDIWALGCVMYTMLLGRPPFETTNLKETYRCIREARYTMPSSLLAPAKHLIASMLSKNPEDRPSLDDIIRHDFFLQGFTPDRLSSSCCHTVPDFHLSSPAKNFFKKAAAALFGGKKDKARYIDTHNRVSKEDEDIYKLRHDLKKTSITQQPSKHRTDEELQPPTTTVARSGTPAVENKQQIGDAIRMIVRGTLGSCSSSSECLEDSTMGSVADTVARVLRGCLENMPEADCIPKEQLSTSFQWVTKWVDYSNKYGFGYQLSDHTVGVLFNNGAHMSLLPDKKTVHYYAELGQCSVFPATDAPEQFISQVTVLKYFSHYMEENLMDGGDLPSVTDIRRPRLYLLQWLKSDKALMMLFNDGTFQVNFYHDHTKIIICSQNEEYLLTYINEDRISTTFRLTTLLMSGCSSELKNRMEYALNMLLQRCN
In series [23] the target is Serine/threonine-protein kinase tousled-like 2 (Homo sapiens) (UniProt Q86UE8). Description: Inhibition of recombinant human TLK2 (387 to end residues) at 1 uM using casein as substrate after 40 mins in presence of [gamma-33P]ATP by scintillation counting method.
Series [24] concerns the target Serine/threonine-protein kinase WNK3 (Homo sapiens) (UniProt Q9BYP7). Kind of series: Inhibition of recombinant human WNK3 (1 to 434 residues) at 1 uM using myelin basic protein as substrate after 40 mins in presence of [gamma-33P]ATP by scintillation counting method.

Molecules are shown by their SMILES.

[Pyruvate dehydrogenase (acetyl-transferring)] kinase isozyme 4, mitochondrial (Homo sapiens), sequence (Q16654 whole entry, looked up): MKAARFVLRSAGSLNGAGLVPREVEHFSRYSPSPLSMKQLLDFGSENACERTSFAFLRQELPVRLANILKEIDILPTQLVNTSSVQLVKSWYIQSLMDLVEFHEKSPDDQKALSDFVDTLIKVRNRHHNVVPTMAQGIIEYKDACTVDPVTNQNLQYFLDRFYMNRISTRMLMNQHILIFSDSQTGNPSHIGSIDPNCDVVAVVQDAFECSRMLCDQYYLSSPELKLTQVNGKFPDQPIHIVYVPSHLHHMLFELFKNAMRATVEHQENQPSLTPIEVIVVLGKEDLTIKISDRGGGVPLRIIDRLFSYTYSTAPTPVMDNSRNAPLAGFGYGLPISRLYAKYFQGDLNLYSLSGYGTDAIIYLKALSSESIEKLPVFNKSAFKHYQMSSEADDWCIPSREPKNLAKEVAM

Regarding `CS(=O)(=O)c1ccc(-n2nc(-c3cnc4[nH]ccc4c3)c3c(N)ncnc32)cc1`, in [1], the IC50 (in general, the concentration that gives 50% inhibition) was 66 nM. The half-life (as a rule, the time needed for the level to fall by half in the phase considered) in series [2] was 2.28 h. The inhibition – broadly, the change of the read-out against control, counted positive when it falls – is 13% in [3]; 80% in series [4]; -8% in [5]; 7% in [6]; 18% in series [7]; 9% in [8]. Further, the inhibition in series [9] is 76%; in [10] it was -10%; in series [11], 9%; in series [12] it was 17%; in [13], 5%; in series [14], -9%. Further, the inhibition in [15] is -8%; in series [16], -4%; in [17], -1%; in series [18], 7%; in series [19], 15%; in series [20], 2%. The inhibition is 3% in series [21], -6% in series [22], 0% in series [23] and 43% in [24].
